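Protocol summary: plate cells (96-well), add compound at 5 concentrations, incubate 48 h, interpolate endpoints linearly. Abbreviation: GI50, concentration required for 50% inhibition of growth.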 Activity calls are given as the source filed them. No stated cut-off is given here; in the data, active = GI50 up to about 1.1 µM and inactive = higher.
What was measured:
Assay in all cases: DTP human tumour cell line panel, 48 h
NCI-H460 = test system: NCI-H460
SF-539 = test system: SF-539
M14 = test system: M14
CAKI-1 = test system: CAKI-1
HL-60 = test system: HL-60
HOP-62 = test system: HOP-62
NCI-H522 = test system: NCI-H522
OVCAR-4 = test system: OVCAR-4
UACC-62 = test system: UACC-62
CCRF-CEM = test system: CCRF-CEM
RXF 393 = test system: RXF 393
KM-20L2 = test system: KM-20L2
HCC 2998 = test system: HCC 2998
OVCAR-8 = test system: OVCAR-8
SK-MEL-28 = test system: SK-MEL-28
LOX IMVI = test system: LOX IMVI
A549 = test system: A549
A498 = test system: A498
Malme-3M = test system: Malme-3M
DMS-114 = test system: DMS-114
MOLT-4 = test system: MOLT-4
786-0 = test system: 786-0
SF-268 = test system: SF-268
HOP-18 = test system: HOP-18
HCT-15 = test system: HCT-15
SK-MEL-5 = test system: SK-MEL-5
TK-10 = test system: TK-10
SNB-78 = test system: SNB-78
OVCAR-5 = test system: OVCAR-5
SNB-19 = test system: SNB-19
HCT-116 = test system: HCT-116
EKVX = test system: EKVX
HT-29 = test system: HT-29
HOP-92 = test system: HOP-92
UACC-257 = test system: UACC-257
DMS-273 = test system: DMS-273
SF-295 = test system: SF-295
UO-31 = test system: UO-31
IGROV-1 = test system: IGROV-1
NCI-H23 = test system: NCI-H23
DLD-1 = test system: DLD-1
RPMI-8226 = test system: RPMI-8226
SNB-75 = test system: SNB-75
M19-MEL = test system: M19-MEL
COLO 205 = test system: COLO 205
ACHN = test system: ACHN
K562 = test system: K562
LXFL 529 = test system: LXFL 529
SK-OV-3 = test system: SK-OV-3
SN12C = test system: SN12C
SW-620 = test system: SW-620
U-251 = test system: U-251
SK-MEL-2 = test system: SK-MEL-2
OVCAR-3 = test system: OVCAR-3
KM12 = test system: KM12
NCI-H226 = test system: NCI-H226
SR = test system: SR

## NC(=S)Nc1nnc(-c2ccc(-c3nnc(NC(N)=S)o3)cc2)o1
NCI-H460
  GI50: > 100 µM (inactive)
SF-539
  GI50: > 100 µM (inactive)
M14
  GI50: > 100 µM (inactive)
CAKI-1
  GI50: > 100 µM (inactive)
HL-60
  GI50: > 100 µM (inactive)
HOP-62
  GI50: > 100 µM (inactive)
NCI-H522
  GI50: > 100 µM (inactive)
OVCAR-4
  GI50: > 100 µM (inactive)
UACC-62
  GI50: > 100 µM (inactive)
CCRF-CEM
  GI50: > 100 µM (inactive)
RXF 393
  GI50: > 100 µM (inactive)
KM-20L2
  GI50: > 100 µM (inactive)
HCC 2998
  GI50: > 100 µM (inactive)
OVCAR-8
  GI50: > 100 µM (inactive)
SK-MEL-28
  GI50: > 100 µM (inactive)
LOX IMVI
  GI50: > 100 µM (inactive)
A549
  GI50: > 100 µM (inactive)
A498
  GI50: > 100 µM (inactive)
Malme-3M
  GI50: > 100 µM (inactive)
DMS-114
  GI50: > 100 µM (inactive)
MOLT-4
  GI50: > 100 µM (inactive)
786-0
  GI50: > 100 µM (inactive)
SF-268
  GI50: > 100 µM (inactive)
HOP-18
  GI50: > 100 µM (inactive)
HCT-15
  GI50: > 100 µM
SK-MEL-5
  GI50: > 100 µM (inactive)
TK-10
  GI50: > 100 µM (inactive)
SNB-78
  GI50: > 100 µM (inactive)
OVCAR-5
  GI50: > 100 µM (inactive)
SNB-19
  GI50: > 100 µM (inactive)
HCT-116
  GI50: > 100 µM (inactive)
EKVX
  GI50: > 100 µM (inactive)
HT-29
  GI50: > 100 µM (inactive)
HOP-92
  GI50: > 100 µM (inactive)
UACC-257
  GI50: > 100 µM (inactive)
DMS-273
  GI50: > 100 µM (inactive)
SF-295
  GI50: > 100 µM (inactive)
UO-31
  GI50: > 100 µM (inactive)
IGROV-1
  GI50: > 100 µM (inactive)
NCI-H23
  GI50: > 100 µM (inactive)
DLD-1
  GI50: > 100 µM (inactive)
RPMI-8226
  GI50: > 100 µM (inactive)
SNB-75
  GI50: > 100 µM (inactive)
M19-MEL
  GI50: > 100 µM (inactive)
COLO 205
  GI50: > 100 µM (inactive)
ACHN
  GI50: > 100 µM (inactive)
K562
  GI50: > 100 µM (inactive)
LXFL 529
  GI50: > 100 µM (inactive)
SK-OV-3
  GI50: > 100 µM (inactive)
SN12C
  GI50: > 100 µM (inactive)
SW-620
  GI50: > 100 µM (inactive)
U-251
  GI50: > 100 µM (inactive)
SK-MEL-2
  GI50: > 100 µM (inactive)
OVCAR-3
  GI50: > 100 µM (inactive)
KM12
  GI50: > 100 µM (inactive)
NCI-H226
  GI50: > 100 µM (inactive)

## CCOC(=O)/C=C1\Nc2ccccc2-n2nnnc21
NCI-H460
  GI50: > 100 µM (inactive)
SF-539
  GI50: > 100 µM (inactive)
M14
  GI50: > 100 µM (inactive)
CAKI-1
  GI50: > 100 µM (inactive)
HL-60
  GI50: > 100 µM (inactive)
HOP-62
  GI50: > 100 µM (inactive)
OVCAR-4
  GI50: > 100 µM (inactive)
UACC-62
  GI50: > 100 µM (inactive)
CCRF-CEM
  GI50: > 100 µM (inactive)
RXF 393
  GI50: > 100 µM (inactive)
KM-20L2
  GI50: > 100 µM (inactive)
HCC 2998
  GI50: > 100 µM (inactive)
OVCAR-8
  GI50: > 100 µM (inactive)
SK-MEL-28
  GI50: > 100 µM (inactive)
LOX IMVI
  GI50: > 100 µM (inactive)
A549
  GI50: > 100 µM (inactive)
A498
  GI50: > 100 µM (inactive)
Malme-3M
  GI50: > 100 µM (inactive)
DMS-114
  GI50: > 100 µM (inactive)
MOLT-4
  GI50: > 100 µM (inactive)
786-0
  GI50: > 100 µM (inactive)
SF-268
  GI50: > 100 µM (inactive)
HOP-18
  GI50: > 100 µM (inactive)
HCT-15
  GI50: > 100 µM
SK-MEL-5
  GI50: > 100 µM (inactive)
TK-10
  GI50: > 100 µM (inactive)
SNB-78
  GI50: > 100 µM (inactive)
OVCAR-5
  GI50: > 100 µM (inactive)
SNB-19
  GI50: > 100 µM (inactive)
HCT-116
  GI50: > 100 µM (inactive)
EKVX
  GI50: > 100 µM (inactive)
HT-29
  GI50: 95.5 µM (inactive)
HOP-92
  GI50: > 100 µM (inactive)
UACC-257
  GI50: > 100 µM (inactive)
DMS-273
  GI50: 30.3 µM (inactive)
SR
  GI50: > 100 µM (inactive)
SF-295
  GI50: > 100 µM (inactive)
UO-31
  GI50: > 100 µM (inactive)
IGROV-1
  GI50: > 100 µM (inactive)
NCI-H23
  GI50: > 100 µM (inactive)
DLD-1
  GI50: > 100 µM (inactive)
RPMI-8226
  GI50: 64.9 µM (inactive)
SNB-75
  GI50: > 100 µM (inactive)
M19-MEL
  GI50: > 100 µM (inactive)
COLO 205
  GI50: > 100 µM (inactive)
ACHN
  GI50: > 100 µM (inactive)
K562
  GI50: > 100 µM (inactive)
LXFL 529
  GI50: > 100 µM (inactive)
SK-OV-3
  GI50: > 100 µM (inactive)
SN12C
  GI50: > 100 µM (inactive)
SW-620
  GI50: 23.7 µM (inactive)
U-251
  GI50: 22.1 µM (inactive)
SK-MEL-2
  GI50: > 100 µM (inactive)
OVCAR-3
  GI50: > 100 µM (inactive)
KM12
  GI50: > 100 µM (inactive)
NCI-H226
  GI50: > 100 µM (inactive)

## CCCCCCCC(=O)OC[C@H](C[As](=O)(O)O)OC(=O)CCCCCCC
SF-539
  GI50: 5.13 µM (inactive)
M14
  GI50: 12.3 µM (inactive)
HL-60
  GI50: 3.97 µM (inactive)
HOP-62
  GI50: 18.7 µM (inactive)
NCI-H522
  GI50: 1.42 µM (inactive)
OVCAR-4
  GI50: 12.2 µM (inactive)
UACC-62
  GI50: 9.29 µM (inactive)
CCRF-CEM
  GI50: 1.95 µM (inactive)
RXF 393
  GI50: 3.92 µM (inactive)
KM-20L2
  GI50: 16.6 µM (inactive)
HCC 2998
  GI50: 14.6 µM (inactive)
OVCAR-8
  GI50: 13.4 µM (inactive)
SK-MEL-28
  GI50: 13.3 µM (inactive)
A549
  GI50: 2.86 µM (inactive)
A498
  GI50: 11.5 µM (inactive)
Malme-3M
  GI50: 12.7 µM (inactive)
DMS-114
  GI50: 6.84 µM (inactive)
MOLT-4
  GI50: 2.15 µM (inactive)
786-0
  GI50: 13.4 µM (inactive)
SF-268
  GI50: 1.82 µM (inactive)
HOP-18
  GI50: 22 µM (inactive)
HCT-15
  GI50: 10.5 µM
SK-MEL-5
  GI50: 13.6 µM (inactive)
SNB-78
  GI50: 14 µM (inactive)
SNB-19
  GI50: 14.3 µM (inactive)
HCT-116
  GI50: 5.24 µM (inactive)
EKVX
  GI50: 21.1 µM (inactive)
HT-29
  GI50: 12.2 µM (inactive)
HOP-92
  GI50: 14.4 µM (inactive)
UACC-257
  GI50: 12.8 µM (inactive)
DMS-273
  GI50: 11.3 µM (inactive)
SR
  GI50: 3.05 µM (inactive)
SF-295
  GI50: 14.4 µM (inactive)
UO-31
  GI50: 2.27 µM (inactive)
IGROV-1
  GI50: 3.57 µM (inactive)
NCI-H23
  GI50: 14.3 µM (inactive)
DLD-1
  GI50: 14.1 µM (inactive)
RPMI-8226
  GI50: 5.36 µM (inactive)
SNB-75
  GI50: 11.1 µM (inactive)
M19-MEL
  GI50: 13.3 µM (inactive)
COLO 205
  GI50: 15.1 µM (inactive)
ACHN
  GI50: 10.7 µM (inactive)
K562
  GI50: 12.7 µM (inactive)
LXFL 529
  GI50: 9.55 µM (inactive)
SK-OV-3
  GI50: 15 µM (inactive)
SN12C
  GI50: 10.1 µM (inactive)
SW-620
  GI50: 7.26 µM (inactive)
U-251
  GI50: 4.95 µM (inactive)
NCI-H226
  GI50: 5.9 µM (inactive)

Reference: ChEMBL document CHEMBL1201862, “PubChem BioAssay data set” (2004)
